Several values for one entry are separate records, joined by “and”; a condition that tells them apart may be missing. Equal entries are not always repeated.
Tested on: Salmonella typhimurium TA98
Test: Ames test, strain TA98
Assay type: cell-based
Conditions: positive control at 2 µg/mL
Protocol: The aim of the study was to assess the mutagenic potential of three extracts obtained from stem cells using two strains of Salmonella typhimurium carrying two types of mutations: TA 98-reading frame shift and TA 100-base pair substitution.
The experimental procedure was carried out basing on the manufacturer's experimental protocol (Xenometrix).

## O=[N+]([O-])c1ccc2c(c1)Cc1ccccc1-2 [2-nitrofluorene (2-NF), 2-nitrofluorene]
  MOI (Multiplicity of induction compared to baseline): 6.9 and 5.6

Reference: EP4389107A1, “METHOD OF PREPARATION OF COSMETIC C[…] […] AND COSMETIC C[…] […]” (Aero-Bw K. Domagala Sp. Jawna, priority 2022, dated 2024)
